Experimental findings from PMC6930524, “A Prospective Repurposing of Dantrolene as a Multitarget Agent for Alzheimer’s Disease” (Molecules, 2019) are described below.

One data set concerns SH-SY5Y cells. Kind of data set: DCF-DA assay of dopamine-induced ROS production. The data set is classed as cell-based. The following applies: dopamine 10 nM insult, compound 100 nM. As for the experimental part: In order to get further information about the potential neuroprotective effects exerted by DAN, we tested it in a 2′,7′-dichlorofluorescin diacetate (DCF-DA) fluorescence-based assay, measuring the production of ROS induced by dopamine in cultured SH-SY5Y cells. Immortalized neuroblastoma cells are a widely used model for neuroprotection assays, while dopamine at a concentration of 10 nM acts as an inducer of oxidative stress, being metabolized by MAOs to form hydrogen peroxide. Once hydrolyzed and oxidized, DCF acts as the fluorescing probe of the OS state of cells. In the presence of an antioxidant, or even of a MAO inhibitor, ROS burden is lowered and DCF fluorescence decreased. […] Its activity is completely superimposable to that of phenelzine, a nonselective MAO inhibitor used as a positive control in Figure 5B [41]. […]
ROS production in SH-SY5Y cell line was detected using Cellular Reactive Oxygen Species Detection Assay Kit ([…]; Abcam, Cambridge, UK). […] After washing, the fluorescence was read immediately, and the readings were taken every 15 min in a 60-min time interval. Fluorescence signal at 535 nm (excitation at 485 nm) was measured using Tecan Infinite M1000 Pro (Tecan, Mannedorf, Switzerland).

The next data set is described as follows: physchem. The following applies: pH 7.4. The protocol:
In order to check the hydrolytic stability of DAN in buffered media, we used a HPLC method to check the stability of 20 μM DAN in phosphate buffered saline (PBS) at physiological pH of 7.4, at 37 °C.
The chromatographic data were acquired using the Waters Breeze software (version 3.20). Analyses were performed on a Phenomenex C18 column (150 × 4.6 mm i.d., 3 µm particle size; Phenomenex srl, Castel Maggiore, Italy) using a mobile phase of methanol/water (75:25 v/v), with aqueous formic acid 0.1%. The used flow rate was 0.5 mL/min and the injection volume was 20 µL. Wavelength UV-Vis detector was set at 380 nm.
The chemical stability of dantrolene sodium was evaluated in a phosphate buffered saline solution pH 7.4 (10 mM HPO4^2−/H2PO4^−, 100 mM NaCl) at 37 °C. Samples were tested in triplicate starting from three different stocks solution (1 mM), which were prepared separately.

Molecules are shown by their SMILES.

In the case of `O=C1CN(/N=C/c2ccc(-c3ccc([N+](=O)[O-])cc3)o2)C(O)=N1` [Dantrolene], the “reduction of ROS oxidation of DCF” value in the data set with SH-SY5Y cells is given as “very effective”. In “physchem”, the recovery at 60 h, 20 μM came to 92%.
